Test results taken from patent publication US8937065B2, “Compositions and methods for modulating a kinase” (Clevexel Pharma, priority 2011, dated 2015).
≈ marks a conversion by molar mass, not a printed value.

How the values were obtained:
[1] = physchem; details: pH 7.4, aqueous buffer, thermodynamic from solid
Method: The test concentration was 100 μM (0% of DMSO for test compounds, 1% of DMSO for reference compounds). The test system was a 100 mM phosphate buffer (pH 7.4). Sample size was duplicates (n=2) and the bioanalytical method was LC-UV (Agilent-1200). Mobile phase A: H2O-1% TFA, B: MeOH-1% TFA; column Boston Symmetrix ODS-H (2.1×50 mm, 5 μm); LC conditions 0.4 mL/Min.
Assay Procedure • 1. For reference compounds: • Add 8 μL of 10 mM DMSO stock solution into 792 μL of 100 mM phosphate buffer (n=2). Final conc.=100 μM (1% of DMSO)
For test compounds: • Add 8 μL of 10 mM DMSO stock solution into the tubes (n=2). • Dry the samples under nitrogen. • Add 800 μL of 100 mM phosphate buffer into the tubes. Final conc.=100 μM (0% of DMSO) • 2. Sample tubes are shaken for 1 hour (1000 rpm) at room temperature and 37° C. • 3. Samples are centrifuged (10 min-12000 rpm) to precipitate un-dissolved particles. • 4. Supernatants are transferred to new tubes • 5. Concentrations of the supernatants after centrifugation are determined by LC-UV detection.

[2] = target: T1, JAK3 (Homo sapiens, UniProt P52333); experiment: JAK3 enzymatic activity assay (Z'-LYTE Biochemical Kinase Assay, 2 hr preincubation at 4° C.); details: cell free, 1% DMSO, read-out: JAK3 activity cell free (2 hr preincubation at (4° C.) Kj)
T1 construct: purchased Invitrogen, Madison, Wis
T1 sequence (P52333 1-1124): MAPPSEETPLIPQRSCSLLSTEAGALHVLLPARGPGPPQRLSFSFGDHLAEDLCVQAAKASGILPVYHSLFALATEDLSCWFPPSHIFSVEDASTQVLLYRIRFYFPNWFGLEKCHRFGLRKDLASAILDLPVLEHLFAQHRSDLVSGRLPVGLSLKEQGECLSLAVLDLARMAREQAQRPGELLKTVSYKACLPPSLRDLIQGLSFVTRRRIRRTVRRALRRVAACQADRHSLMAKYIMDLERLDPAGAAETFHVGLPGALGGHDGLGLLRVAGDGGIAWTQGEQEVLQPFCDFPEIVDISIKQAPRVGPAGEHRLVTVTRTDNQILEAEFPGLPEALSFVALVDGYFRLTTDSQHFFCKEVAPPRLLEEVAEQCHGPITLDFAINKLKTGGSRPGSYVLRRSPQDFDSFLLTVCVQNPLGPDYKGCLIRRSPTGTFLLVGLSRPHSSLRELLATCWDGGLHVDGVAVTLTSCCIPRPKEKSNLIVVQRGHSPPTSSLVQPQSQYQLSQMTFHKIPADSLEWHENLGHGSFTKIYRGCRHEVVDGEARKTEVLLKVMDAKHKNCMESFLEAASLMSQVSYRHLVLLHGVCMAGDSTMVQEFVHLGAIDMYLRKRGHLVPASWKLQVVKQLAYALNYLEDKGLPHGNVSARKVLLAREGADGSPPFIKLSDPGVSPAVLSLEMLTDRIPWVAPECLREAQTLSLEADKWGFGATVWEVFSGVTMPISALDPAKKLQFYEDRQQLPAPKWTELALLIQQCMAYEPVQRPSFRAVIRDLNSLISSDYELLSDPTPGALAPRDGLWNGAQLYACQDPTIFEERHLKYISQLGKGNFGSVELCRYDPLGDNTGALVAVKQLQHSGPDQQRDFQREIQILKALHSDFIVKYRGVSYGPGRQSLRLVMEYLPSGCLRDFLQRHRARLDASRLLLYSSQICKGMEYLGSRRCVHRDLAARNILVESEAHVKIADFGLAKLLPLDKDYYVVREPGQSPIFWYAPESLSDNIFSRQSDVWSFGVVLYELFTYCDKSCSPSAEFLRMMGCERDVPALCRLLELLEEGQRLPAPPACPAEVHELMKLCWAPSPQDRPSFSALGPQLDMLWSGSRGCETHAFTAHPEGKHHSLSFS
Method: The assays were performed according to manufacturer's protocols, except that prior to the kinase reaction they were pre-incubated for 2 hours at 4° C., in order to be able to assay for time-dependent inhibition.
In addition to the compound, each 10 μL JAK3 kinase reaction contained 0.43-1.89 ng JAK3 and 2 μM peptide substrate in 50 mM HEPES (pH 7.5), 0.01% BRIJ-35, 10 mM MgCl2 and 1 mM EGTA. The kinase reaction was allowed to proceed for 1 hour.

[3] = test system: Interleukin 4/STAT6-STAT6-bla RA1; experiment: Interleukin 4/STAT6-STAT6-bla RA1 inhibition (IL-4-stimulated STAT6 activity in Ramos cells); assay type: cell-based; details: Homo sapiens, Ramos; Table 1, 6th column; read-out: Cell based IL4 stimulation IC50
Method: The inhibition of Interleukin 4/STAT6-STAT6-bla RA1 (activated by IL-4) by several compounds was determined using the Screening Protocol and Assay Conditions (Invitrogen, Madison, Wis.). The assays were performed according to manufacturer's protocols. Example 4, Cell-line Specific Protocols IL-4-stimulated STAT6 activity in Ramos cells for details.
Mechanism-based inhibition assays using compound 7A (Table 1) were performed using GeneBLAzer® Technology (Invitrogen Corporation), according to manufacturer specifications. […] In this state, excitation of the coumarin results in fluorescence resonance energy transfer to the fluorescein moiety and emission of green light. […] Excitation of the coumarin in the presence of Beta-lactamase activity results in a blue fluorescence signal. […]
An activator assay screen was run to obtain the EC80 concentration of the known activator to add in step 3. • 1. […] 4 μL of the EC80 concentration of activator, as determined in an Activator assay, was added to all wells containing compound and known inhibitor to bring the final assay volume to 40 μL. • 4. […] The assay plate was read on a fluorescence plate reader (Tecan Safire) and the data is analyzed. […]
STAT6-bla RA1 cells were thawed. […] The plate was read on a fluorescence plate reader.

Structure (SMILES): Cl.O=C(CN1CCOCC1)Nc1cccc(-c2nc(-c3c[nH]c(C(=O)N4CCCC4)c3)cs2)c1 [9X (sample 2), 2-morpholino-N-(3-(4-(5-(pyrrolidine-1-carbonyl)-1H-pyrrol-3-yl)thiazol-2-yl)phenyl)acetamide hydrochloride salt]
- solubility at 1 h ([1]; Solubility (μM) Mean): 51.9 µM
- solubility at 1 h ([1]; Solubility in PBS): 10 to 80 µM

Structure (SMILES): O=C(c1cc(-c2csc(-c3ccccc3)n2)c[nH]1)N1CCCC1 [11A]
- Ki [2]: 1.1 to 10 µM
- IC50 [3]: 0.11 to 1 µM

Structure (SMILES): CC(=O)N1CCN(c2ccc(OCC3COC(Cn4ccnc4)(c4ccc(Cl)cc4Cl)O3)cc2)CC1 (centres unmarked) [Ketoconazole, reference compound]
- solubility at 1 h ([1]; Solubility (μM) Mean): 15.9 µM (≈ 8.45 µg/mL)
- solubility at 1 h ([1]; Solubility in PBS): 15.9 µM (≈ 8.45 µg/mL)

Structure (SMILES): CC(C)NCC(O)COc1cccc2ccccc12 (centres unmarked) [Propranolol, reference compound]
- solubility at 1 h ([1]; Solubility (μM) Mean, kinetic solubility, 100 mM phosphate buffer (pH 7.4), test concentration 100 μM, n=2, LC-UV): > 100 µM
- solubility at 1 h ([1]; Solubility in PBS, 100 mM phosphate buffer pH 7.4, test concentration 100 μM): ~100 µM (≈ 25.9 µg/mL)
